Data taken from patent publication US20220160824A1, “COMPOUNDS FOR USE IN THE TREATMENT OF PARKINSON'S DISEASE” (UNIVERSITY OF THE WITWATERSRAND, JOHANNESBURG, priority 2018, published 2022).
Blank lines part the entries; values can stand above or below the compound they belong to.

Tests used:
HEK293 cells = test: MTT cell viability assay, HEK293 cells treated with α-Synuclein; type: cell-based, human; conditions: for cell viability after α-Synuclein treatment: 200 nM and 500 nM
From the text: The effects of treatment of cells with a specific substance or protein on cell viability can be determined by the MTT (3-(4,5-dimethylthiazol-2-yl)-2,5-diphenyltetrazolium bromide) assay (Riss et al., 2016). MTT is a tetrazolium salt that is yellow in colour that is converted to the purple formazan crystals by the mitochondrial enzyme succinate dehydrogenase (Stockert et al., 2012). The succinate dehydrogenase is only active in viable cells and therefore only viable cells will convert MTT to formazan (Stockert et al., 2012). The MTT assay was chosen over other cell viability assays, such as the ATP assay, the resoazurin reduction assay and the protease viability marker assay, due to its high throughput screening. For this study, HEK293 cells were first seeded at 1.4×10^4 cells per well in a 24-well plate while SH-SY5Y cells were seeded at 1.8×10^4 due to a slower growth rate. The cells were then incubated overnight to allow reattachment. Cells were then treated with 200 nM and 500 nM α-Synuclein, in order to induce a PD-like state. Following treatment, the cells were incubated for 48 hours to determine the effects of α-Synuclein on cell viability […]. The known apoptosis inducer, protocatechuic acid (PCA) was used as the positive control. Following incubation, 200 μl of […] was then added to each well and incubated for 2 hours at 37° C. to allow the formation of formazan crystals. The remaining MTT was discarded and the formazan crystals were dissolved by the addition of 200 μl dimethyl sulfoxide (DMSO). The samples were then added to a 96-well plate at 100 μl in duplicates and the absorbance was read at 570 nm using an ELISA plate reader. High absorbance is indicative of a high number of viable cells.
Statistical evaluation of the data was conducted by performing the […] with a confidence interval of 95% and as a result, results were considered significant when the p-value was lower than 0.05 was considered significant (*p<0.05, **p<0.01 and ***p<0.001) (Johnston, 1970).

SH-SY5Y cells = test: MTT cell viability assay, SH-SY5Y cells treated with α-Synuclein; type: cell-based; conditions: for cell viability after α-Synuclein treatment: 200 nM and 500 nM
From the text: The HEK293 cell line was used as it is commonly used in Parkinson's disease (PD) research (Schlachetzki et al., 2013). The cell culture media was made up from Dulbecco's Modified Eagle Medium (DMEM) (Hyclone) and Ham's F12 with a ratio of 1:1. The mixture was supplement with 1% penicillin/streptomycin (P/S) and 15% foetal bovine serum […] to create a supplemented media that will provide the cells with essential nutrients that include growth factors and P/S to prevent contamination with bacteria and fungi. The nutrient media was renewed when it was required. The cells were cultured at in an incubator, that maintains the humidity, pH, at 37° C. and 5% CO2 atmospheric composition to mimic in vivo conditions. Once the cells reached a confluency of 80%, they were passaged by washing with phosphate-buffered saline (PBS) followed by resuspension by the addition of trypsin-EDTA. Once the cells were re-suspended media was added to inactivate the trypsin and the cell suspension was diluted into a new flask. Fresh media was added to both flasks. Both transfected and non-transfected cells were harvested for further applications. […] SH-SY5Y cells were also received after transfection was confirmed. The cells were maintained in the same conditions as the HEK293 cells. The SH-SY5Y cells were used for the […] cell viability assay. LRP::FLAG overexpressing HEK293 cells in the presence of 1-Methyl-4-phenylpyridinium iodide (MPP+), a PD inducer, was also investigated. Late stage colorectal carcinoma cells (DLD-1) cells were used for certain confocal microscopy studies with parkin protein.
The effects of treatment of cells with a specific substance or protein on cell viability can be determined by the MTT (3-(4,5-dimethylthiazol-2-yl)-2,5-diphenyltetrazolium bromide) assay (Riss et al., 2016). […] The samples were then added to a 96-well plate at 100 μl in duplicates and the absorbance was read at 570 nm using an ELISA plate reader. High absorbance is indicative of a high number of viable cells. […]

[1] = target: 37 kDa/67 kDa laminin receptor precursor/high affinity laminin receptor (LRP/LR) (human) (UniProt P08865); test: cell-based or functional assay

Chain of parkin (O60260 whole entry): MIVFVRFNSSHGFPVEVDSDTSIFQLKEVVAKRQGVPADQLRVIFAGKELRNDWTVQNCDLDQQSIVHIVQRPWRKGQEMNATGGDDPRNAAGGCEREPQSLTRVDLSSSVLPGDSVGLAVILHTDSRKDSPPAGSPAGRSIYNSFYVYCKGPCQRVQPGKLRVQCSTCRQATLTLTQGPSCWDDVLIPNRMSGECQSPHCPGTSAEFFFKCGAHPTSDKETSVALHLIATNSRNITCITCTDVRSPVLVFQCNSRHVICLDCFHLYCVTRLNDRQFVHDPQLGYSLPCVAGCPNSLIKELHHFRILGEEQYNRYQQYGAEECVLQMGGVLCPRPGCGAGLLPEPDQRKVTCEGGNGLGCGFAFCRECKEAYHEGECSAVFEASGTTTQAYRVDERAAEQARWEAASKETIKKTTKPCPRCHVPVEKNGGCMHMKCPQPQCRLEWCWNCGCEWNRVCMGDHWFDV

Compound: α-Synuclein
cell viability after α-Synuclein treatment (HEK293 cells; HEK293 non-transfected cells, 48 hours): decreased significantly | cell viability after α-Synuclein treatment (HEK293 cells; LRP::FLAG overexpressing and non-transfected HEK293 cells): slight decrease | cell viability after α-Synuclein treatment (SH-SY5Y cells; LRP::FLAG overexpressing and non-transfected SH-SY5Y cells): no decrease | cell viability after α-Synuclein treatment (SH-SY5Y cells; SH-SY5Y non-transfected cells, 48 hours): no significant increase or decrease

percent of LRP colocalizing with parkin, confocal microscopy, DLD-1 cells overexpressing LRP::FLAG (total LRP stained) [1]: 22% | percent of LRP/LR colocalizing with parkin, confocal microscopy, DLD-1 cells [1]: 54% | percent of parkin colocalizing with LRP, confocal microscopy, DLD-1 cells overexpressing LRP::FLAG (total LRP stained) [1]: 99% | percent of parkin colocalizing with LRP/LR, confocal microscopy, DLD-1 cells [1]: 59%
Compound: parkin (from UniProt O60260 1-465) (enzyme)

Compound: O=C(O)c1ccc(O)c(O)c1 [PCA, protocatechuic acid]
cell viability with positive control (HEK293 cells; HEK293 transfected and non-transfected cell lines): significant decrease | cell viability with positive control (SH-SY5Y cells; SH-SY5Y transfected and non-transfected cell lines): significant decrease
